Measurements as given in patent US9260483B2, “Triazacyclononane-based phosphinate ligand and its use for molecular imaging” (TECHNISCHE UNIVERSITÄT MÜNCHEN, priority 2011, dated 2016).
Where two headings read alike, the source gives them in different places.

Columns and labels:
αvβ3 integrin = molecular target: T1, αvβ3 integrin (Homo sapiens, UniProt P05106+P06756); assay: In vitro binding assay: displacement of 125I-echistatin on M21 human melanoma cells
T1 construct: endogenous in cells; host or cells: M21 human melanoma cells
T1 sequence (P06756 31-889 limits assumed): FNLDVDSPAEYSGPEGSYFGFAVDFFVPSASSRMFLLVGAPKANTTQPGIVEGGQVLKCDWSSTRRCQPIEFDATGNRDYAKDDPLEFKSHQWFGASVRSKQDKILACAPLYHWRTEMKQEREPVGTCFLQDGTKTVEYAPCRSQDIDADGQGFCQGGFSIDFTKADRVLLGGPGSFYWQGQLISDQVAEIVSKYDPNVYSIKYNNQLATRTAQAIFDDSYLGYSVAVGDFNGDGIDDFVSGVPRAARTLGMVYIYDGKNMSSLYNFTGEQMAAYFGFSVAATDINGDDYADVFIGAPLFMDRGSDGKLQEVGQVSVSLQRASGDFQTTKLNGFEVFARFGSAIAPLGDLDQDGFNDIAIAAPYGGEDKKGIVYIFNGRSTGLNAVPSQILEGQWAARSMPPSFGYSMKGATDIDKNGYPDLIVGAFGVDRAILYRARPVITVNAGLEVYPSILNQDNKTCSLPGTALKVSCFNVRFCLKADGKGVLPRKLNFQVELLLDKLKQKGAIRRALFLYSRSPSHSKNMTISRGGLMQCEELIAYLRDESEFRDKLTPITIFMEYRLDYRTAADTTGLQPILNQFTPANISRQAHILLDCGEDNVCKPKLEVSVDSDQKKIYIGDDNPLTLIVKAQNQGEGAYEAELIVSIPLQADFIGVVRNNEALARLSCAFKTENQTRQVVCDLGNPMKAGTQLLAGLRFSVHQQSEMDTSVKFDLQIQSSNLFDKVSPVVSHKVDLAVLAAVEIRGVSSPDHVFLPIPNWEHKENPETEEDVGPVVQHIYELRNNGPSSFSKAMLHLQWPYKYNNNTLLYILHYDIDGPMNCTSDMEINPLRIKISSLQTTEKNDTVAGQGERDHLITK
T1 sequence (P06756 891-1048 partner limits assumed): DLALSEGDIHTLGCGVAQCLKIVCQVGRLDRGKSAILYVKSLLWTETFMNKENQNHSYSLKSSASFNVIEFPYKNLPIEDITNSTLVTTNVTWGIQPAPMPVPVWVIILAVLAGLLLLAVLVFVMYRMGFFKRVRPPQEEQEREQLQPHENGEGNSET
T1 sequence (P05106 27-788): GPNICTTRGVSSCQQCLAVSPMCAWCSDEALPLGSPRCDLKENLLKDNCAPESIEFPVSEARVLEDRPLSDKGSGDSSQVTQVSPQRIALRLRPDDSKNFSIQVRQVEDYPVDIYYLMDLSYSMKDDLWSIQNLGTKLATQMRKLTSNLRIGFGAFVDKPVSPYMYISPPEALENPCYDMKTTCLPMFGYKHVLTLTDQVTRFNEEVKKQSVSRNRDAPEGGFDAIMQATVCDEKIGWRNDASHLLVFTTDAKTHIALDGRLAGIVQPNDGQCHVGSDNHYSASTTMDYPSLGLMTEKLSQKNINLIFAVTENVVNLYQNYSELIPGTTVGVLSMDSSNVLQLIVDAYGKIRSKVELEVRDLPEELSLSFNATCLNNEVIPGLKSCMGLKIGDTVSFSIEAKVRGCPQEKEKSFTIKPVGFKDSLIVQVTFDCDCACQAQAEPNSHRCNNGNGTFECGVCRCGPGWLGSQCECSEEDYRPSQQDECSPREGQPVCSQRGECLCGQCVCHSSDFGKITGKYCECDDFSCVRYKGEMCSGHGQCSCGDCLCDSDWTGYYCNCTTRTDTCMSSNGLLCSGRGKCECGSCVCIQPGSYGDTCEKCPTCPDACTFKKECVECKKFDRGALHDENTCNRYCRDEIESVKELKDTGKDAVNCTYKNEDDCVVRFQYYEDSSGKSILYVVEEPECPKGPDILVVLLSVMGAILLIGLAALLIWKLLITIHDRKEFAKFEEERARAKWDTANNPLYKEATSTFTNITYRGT

[1] = M21 cells, 125I-echistatin, 2 h room temperature, read-out: IC50

Row | Molecule | logP | IC50 (αvβ3 integrin; IC50 (nM)) [nM] | further results
1 | 19F-galacto-RGD [reference compound] | – | – | IC50 (αvβ3 integrin; [1]): 319 nM; log IC50 (αvβ3 integrin; logarithmic IC50 with logarithmic error, M21 cells, 125I-echistatin, 2 h room temperature): −6.45 ± 0.157
2 | N=C(N)NCCC[C@@H]1NC(=O)[C@H](CCCCNC(=O)CCOCCOCCOCCOCCNC(=O)CCP(=O)(O)CN2CCN(CP(=O)(O)CCC(=O)NCCOCCOCCOCCOCCC(=O)NCCCC[C@@H]3NC(=O)[C@@H](Cc4ccccc4)NC(=O)[C@H](CC(=O)O)NC(=O)CNC(=O)[C@H](CCCNC(=N)N)NC3=O)CCN(CP(=O)(O)CCC(=O)NCCOCCOCCOCCOCCC(=O)NCCCC[C@@H]3NC(=O)[C@@H](Cc4ccccc4)NC(=O)[C@H](CC(=O)O)NC(=O)CNC(=O)[C@H](CCCNC(=N)N)NC3=O)CC2)NC(=O)[C@@H](Cc2ccccc2)NC(=O)[C@H](CC(=O)O)NC(=O)CNC1=O (single isomer, unassigned) [Ga-R3PEG4P9] | -3.9 ± 0.1 | – | –
3 | N=C(N)NCCC[C@@H]1NC(=O)[C@H](CCCCNC(=O)CCP(=O)(O)CN2CCN(CP(=O)(O)CCC(=O)O)CCN(CP(=O)(O)CCC(=O)O)CC2)NC(=O)[C@@H](Cc2ccccc2)NC(=O)[C@H](CC(=O)O)NC(=O)CNC1=O [Compound R1P9] | – | 2890 | IC50 (αvβ3 integrin; log IC50): 2950 nM
4 | N=C(N)NCCC[C@@H]1NC(=O)[C@H](CCCCNC(=O)CCP(=O)(O)CN2CCN(CP(=O)(O)CCC(=O)O)CCN(CP(=O)(O)CCC(=O)NCCCC[C@@H]3NC(=O)[C@@H](Cc4ccccc4)NC(=O)[C@H](CC(=O)O)NC(=O)CNC(=O)[C@H](CCCNC(=N)N)NC3=O)CC2)NC(=O)[C@@H](Cc2ccccc2)NC(=O)[C@H](CC(=O)O)NC(=O)CNC1=O [Compound R2P9] | – | 370 | –
5 | CCN=c1cc2oc3cc(NCC)c(C)cc3c(-c3ccccc3C(=O)NCCCCCCNC(=O)CCP(=O)(O)CN3CCN(CP(=O)(O)CCC(=O)NCCCCC4NC(=O)[C@@H](Cc5ccccc5)NC(=O)[C@H](CC(=O)O)NC(=O)CNC(=O)[C@H](CCCNC(=N)N)NC4=O)CCN(CP(=O)(O)CCC(=O)NCCCC[C@@H]4NC(=O)[C@@H](Cc5ccccc5)NC(=O)[C@H](CC(=O)O)NC(=O)CNC(=O)[C@H](CCCNC(=N)N)NC4=O)CC3)c-2cc1C (some centres unmarked) [Compound R2RhoP9] | – | 92 | –
6 | N=C(N)NCCC[C@@H]1NC(=O)[C@H](CCCCNC(=O)CC[C@H](NC(=O)CCP(=O)(O)CN2CCN(CP(=O)(O)CCC(=O)N[C@@H](CCC(=O)NCCCC[C@@H]3NC(=O)[C@@H](Cc4ccccc4)NC(=O)[C@H](CC(=O)O)NC(=O)CNC(=O)[C@H](CCCNC(=N)N)NC3=O)C(=O)O)CCN(CP(=O)(O)CCC(=O)N[C@@H](CCC(=O)NCCCC[C@@H]3NC(=O)[C@@H](Cc4ccccc4)NC(=O)[C@H](CC(=O)O)NC(=O)CNC(=O)[C@H](CCCNC(=N)N)NC3=O)C(=O)O)CC2)C(=O)O)NC(=O)[C@@H](Cc2ccccc2)NC(=O)[C@H](CC(=O)O)NC(=O)CNC1=O [Compound R3GlutP9] | – | 125 | –
7 | N=C(N)NCCC[C@@H]1NC(=O)[C@H](CCCCNC(=O)CCCCCNC(=O)CC[PH](=O)CN2CCN(CP(=O)(O)CCC(=O)NCCCCCC(=O)NCCCC[C@@H]3NC(=O)[C@H](Cc4ccccc4)NC(=O)[C@H](CC(=O)O)NC(=O)CNC(=O)[C@H](CCCNC(=N)N)NC3=O)CCN(CP(=O)(O)CCC(=O)NCCCCCC(=O)NCCCC[C@@H]3NC(=O)[C@H](Cc4ccccc4)NC(=O)[C@H](CC(=O)O)NC(=O)CNC(=O)[C@H](CCCNC(=N)N)NC3=O)CC2)NC(=O)[C@H](Cc2ccccc2)NC(=O)[C@H](CC(=O)O)NC(=O)CNC1=O (some centres unmarked) [Compound R3HexP9] | – | 85 | –
8 | N=C(N)NCCC[C@@H]1NC(=O)[C@H](CCCCNC(=O)CCOCCOCCOCCOCCOCCOCCOCCOCCNC(=O)CCP(=O)(O)CN2CCN(CP(=O)(O)CCC(=O)NCCOCCOCCOCCOCCOCCOCCOCCOCCC(=O)NCCCC[C@@H]3NC(=O)[C@@H](Cc4ccccc4)NC(=O)[C@H](CC(=O)O)NC(=O)CNC(=O)[C@H](CCCNC(=N)N)NC3=O)CCN(CP(=O)(O)CCC(=O)NCCOCCOCCOCCOCCOCCOCCOCCOCCC(=O)NCCCC[C@@H]3NC(=O)[C@@H](Cc4ccccc4)NC(=O)[C@H](CC(=O)O)NC(=O)CNC(=O)[C@H](CCCNC(=N)N)NC3=O)CC2)NC(=O)[C@@H](Cc2ccccc2)NC(=O)[C@H](CC(=O)O)NC(=O)CNC1=O [Compound R3PEG8P9] | – | – | IC50 (αvβ3 integrin; [1]): 50 nM
9 | N=C(N)NCCC[C@@H]1NC(=O)[C@H](CCCCNC(=O)CCP(=O)(O)CN2CCN(CP(=O)(O)CCC(=O)O)CCN(CP(=O)(O)CCC(=O)O)CC2)NC(=O)[C@@H](Cc2ccccc2)NC(=O)[C@H](CC(=O)O)NC(=O)CNC1=O [Ga-R1P9] | -3.91 ± 0.11 | – | –
10 | N=C(N)NCCC[C@@H]1NC(=O)[C@H](CCCCNC(=O)CCP(=O)(O)CN2CCN(CP(=O)(O)CCC(=O)O)CCN(CP(=O)(O)CCC(=O)NCCCC[C@@H]3NC(=O)[C@@H](Cc4ccccc4)NC(=O)[C@H](CC(=O)O)NC(=O)CNC(=O)[C@H](CCCNC(=N)N)NC3=O)CC2)NC(=O)[C@@H](Cc2ccccc2)NC(=O)[C@H](CC(=O)O)NC(=O)CNC1=O [Ga-R2P9] | -4.12 ± 0.06 | – | –
11 | CCN=c1cc2oc3cc(NCC)c(C)cc3c(-c3ccccc3C(=O)NCCCCCCNC(=O)CCP(=O)(O)CN3CCN(CP(=O)(O)CCC(=O)NCCCC[C@@H]4NC(=O)[C@@H](Cc5ccccc5)NC(=O)[C@H](CC(=O)O)NC(=O)CNC(=O)[C@H](CCCNC(=N)N)NC4=O)CCN(CP(=O)(O)CCC(=O)NCCCC[C@@H]4NC(=O)[C@@H](Cc5ccccc5)NC(=O)[C@H](CC(=O)O)NC(=O)CNC(=O)[C@H](CCCNC(=N)N)NC4=O)CC3)c-2cc1C [Ga-R2RhoP9] | -1.27 ± 0.04 | – | –
12 | N=C(N)NCCC[C@@H]1NC(=O)[C@H](CCCCNC(=O)CC[C@H](NC(=O)CCP(=O)(O)CN2CCN(CP(=O)(O)CCC(=O)N[C@@H](CCC(=O)NCCCC[C@@H]3NC(=O)[C@@H](Cc4ccccc4)NC(=O)[C@H](CC(=O)O)NC(=O)CNC(=O)[C@H](CCCNC(=N)N)NC3=O)C(=O)O)CCN(CP(=O)(O)CCC(=O)N[C@@H](CCC(=O)NCCCC[C@@H]3NC(=O)[C@@H](Cc4ccccc4)NC(=O)[C@H](CC(=O)O)NC(=O)CNC(=O)[C@H](CCCNC(=N)N)NC3=O)C(=O)O)CC2)C(=O)O)NC(=O)[C@@H](Cc2ccccc2)NC(=O)[C@H](CC(=O)O)NC(=O)CNC1=O [Ga-R3GlutP9] | -4.03 ± 0.12 | – | –
13 | N=C(N)NCCC[C@@H]1NC(=O)[C@H](CCCCNC(=O)CCCCCNC(=O)CCP(=O)(O)CN2CCN(CP(=O)(O)CCC(=O)NCCCCCC(=O)NCCCC[C@@H]3NC(=O)[C@@H](Cc4ccccc4)NC(=O)[C@H](CC(=O)O)NC(=O)CNC(=O)[C@H](CCCNC(=N)N)NC3=O)CCN(CP(=O)(O)CCC(=O)NCCCCCC(=O)NCCCC[C@@H]3NC(=O)[C@@H](Cc4ccccc4)NC(=O)[C@H](CC(=O)O)NC(=O)CNC(=O)[C@H](CCCNC(=N)N)NC3=O)CC2)NC(=O)[C@@H](Cc2ccccc2)NC(=O)[C@H](CC(=O)O)NC(=O)CNC1=O [Ga-R3HexP9] | -3.99 ± 0.13 | – | –
14 | Echistatin [reference compound] | – | – | log IC50 (αvβ3 integrin): −9.01 ± 0.033; IC50 (αvβ3 integrin; read-out: IC50): 0.98 nM
